Laboratory results as given in patent publication US8097656B2, “Nitrogenated trans-stilbene analogs, method for the obtention and medical applications thereof” (Dominion Pharmakine S.L, priority 2005, dated 2012).

Assays:
MB16 cells [1] = test: In vitro proliferation of MB16 cells in response to murine HSC soluble factors; assay type: cell-based; conditions: for Increase in proliferation of B16 cells by MC-CEH (in words): 2.5 μM for 30 minutes before MC-CEH, 48 hours; for Proliferation of MB16 cells in response to murine HSC soluble factors (No. cells per well): 2.5 μM, 30 min before HSC-conditioned media, 48 h, control 16300 ± 300, treatment alone 21660 ± 500
Method: Culture of B16 (MB16) and A375 (MA375) melanoma cells. The MB 16 (B16F10 subline) murine tumor cells were cultured at 37° C., with 5% CO2 atmosphere in Dulbecco's modified Eagle's medium (DMEM)-HCO3 penicillin (100 U/ml), streptomycin (100 μg/ml), supplemented with 5% fetal bovine serum and adjusted to pH 7.4. The cells were maintained and subcultured according to the method described by Vidal-Vanaclocha et al. (1994) [Vidal-Vanaclocha, F., Amézaga, C., Asumendi, A., Kaplanski, G. & Dinarello, C. A. Interleukin-1 receptor blockade reduces the number and size of murine B16 melanoma hepatic metastases. Cancer Research, 1994, 54, 2667-2672]. The conditioned media were obtained from subconfluyent cultures maintained in absence of FBS for 24 hours.
In vitro Melanoma cell proliferation test. The MB16 or MA375 cells are seeded (2500 cells/well/200 μl) in DMEM medium (Dulbecco's modified Eagle's medium) with 10% fetal bovine serum (FBS). Once adhered, they were washed to remove the FBS and fresh medium was added in the presence or absence of 2.5 μM of the compounds to be tested. In the experiments with MA375, the compound azaresveratrol (see Table 4) was used, and in the experiments with MB16 cells, the compounds azaresveratrol, JE1:2, JE2:1 or JE2:2 (see FIG. 3) were used. Thirty (30) minutes later, 10 ng/ml of IL-18 or HSC-conditioned media (murines in the case of B16 and human ones in the case of A375) were added to some wells, and the plates were incubated for 48 hours at 37° C. with 5% CO2 Upon completion of the incubation period, the cells were fixed with […] for 1 hours, were washed and were allowed to dry in the incubator at 50° C. for 30 minutes. In following, 100 μl/well of sulforhodamine 101 (0.4% p/v) was added and they were incubated at room temperature in the dark for 30 minutes. After washing, 200 μl/well of Tris base 10 mM pH 10.5 was added and the fluorescence was measured by means of a 530 nm, 620 nm emission excitation filter plate fluorescence reader. The number of cells was calculated by extrapolating said fluorescence data on a standard straight line previously obtained based on the fluorescence emitted in an increasing number of cells.

MB16 cells [2] = test: MB16 hepatic metastasis test after intrasplenic injection; assay type: in vivo, C57BL/6J mice; conditions: 1 mg/Kg/day nasogastrically; for Reduction of the mean density of hepatic metastases: daily, vs control animals, P<0.01; for No. portal metases/No. sinusoidal metastasis (ratio in brackets) / Percentage of focal points w/cavitation (% of total no. of metastatic focal points) / No. portal metases / No. sinusoidal metastasis / Volume of hepatic metastasis (mm^3) / Hepatic focal point density (No. focal points/100 mm^3) / Metastatic cell proliferation index (% cells positive to Ki67 antigen) / Length of angiogenic vessels (μm): day 12; for No. portal metases/No. sinusoidal metastasis (ratio in brackets): control 1; for Percentage of focal points w/cavitation (% of total no. of metastatic focal points): control 13.5 ± 5.0; for No. portal metases / No. sinusoidal metastasis: control 30; for Volume of hepatic metastasis (mm^3): control 60.0 ± 7.5; for Hepatic focal point density (No. focal points/100 mm^3): control 60.0 ± 11; for Metastatic cell proliferation index (% cells positive to Ki67 antigen): control 71.0 ± 5.0; for Length of angiogenic vessels (μm): control 175.0 ± 10
Method: MB16 Hepatic Metastasis Test using C57 BL/6J mice (males 6-8 weeks of age) supplied by IFFA Credo (L'Arbreole, France). The care, maintenance and experimental conditions were carried out in accordance with that which is set forth under EEC Council Directive 86/609 (OJ L 358. 1, Dec. 12, 1987) and the NIH guide for the care and use of laboratory animals (NIH publication 85-23, 1985). In the experiments with the resveratrol and azaresveratrol compounds (Table 1), the animals (10 per group) received 1 mg/Kg/day of the compounds nasogastrically every day up to the time of sacrifice. In the experiments with the JE2:2 compound (FIG. 12), one group of mice (n=10) was given an intraperitoneal injection of 0.5 mg/kg of the JE2:2 compound dissolved in 0.1 ml of PBS. The control group (n=10), was given an intraperitoneal injection of PBS. One hour later, animals were anesthetized and were intrasplenically injected with MB16 cells (3×10^5 cells/mouse). The same treatments, at the same doses, were repeated on days 2, 3, 4, 8, 9, 10 and 11 following tumor injection.
Twelve (12) days later, the livers were removed and processed for the histological study. Firstly, they were fixed in a solution of zinc (0.5 g calcium acetate, 5 g zinc acetate, 5 g zinc chloride and 1000 ml tris buffer, pH 7.4) for 24 hours. Once fixed, they were dehydrated in alcohols of increasing concentrations, and paraffin block were included. Afterward, a minimum of nine (9) cuts 10 μm in thickness were made per liver, leaving a space of 300 μm between every 3 cuts and a 1 mm space between successive groups of 3 cuts. Once the sections had been obtained, they were processed and stained with hematoxylin-eosine. On the one hand, the number, mean diameter, area and position coordinates of each metastasis were quantified by means of an integrated image analysis system (Olympus Microimage 4.0 capture kit) connected to an Olympus BX51TF microscope. With obtained data, metastatic parameters (that is to say, the number of focal points per 100 mm^3 of hepatic tissue) and metastatic volume (that is to say, the volume of liver occupied by metastatic tissue) were calculated as described by Vidal-Vanaclocha et al. [cf. Vidal-Vanaclocha, F., Amézaga, C., Asumendi, A., Kaplanski, G. & Dinarello, C. A. “Interleukin-1 receptor blockade reduces the number and size of murine B 16 melanoma hepatic metastases”, Cancer Research, 1994, vol. 54, pp. 2667-2672]. On the other hand, more cuts were made in the same blocks, and a double marking with CD31 and desmine was performed to calculate the number and length of the angiogenic vessels within the metastases and also to study metastases according to their angiogenic pattern in portal-type expansive metastases (the angiogenic vessels surround the metastases) or sinusoidal type invasive metastases (containing an internal network of angiogenic capillaries). Another parameter that was quantified is the cavitated metastasis percentage. Lastly, immunohistochemical detection of Ki67 antigen was performed to assess the number of tumor cells which proliferated per unit of tumor surface.
To this end, the MB16 cells were intrasplenically injected in C57BL/6J mice (3×10^5 viable cells per animal resuspended in endotoxin-free sterile saline solution), 12 days after which the capacity thereof of development metastasis was determined.
One group of mice (n=7) were administered an intraperitoneal injection of JE2:2 (2.5 mg/kg) 1′ hour prior to tumor cell injection, and the same dose was repeated on days 2, 3, 4, 8, 9, 10 and 11 in following thereto. The group of control mice (n=7) was administered PBS.

Row | SMILES | Increase in proliferation of B16 cells by MC-CEH (in words) (MB16 cells [1]) | Proliferation of MB16 cells in response to murine HSC soluble factors (No. cells per well) (MB16 cells [1]) | Reduction of the mean density of hepatic metastases (MB16 cells [2]) | No. portal metases/No. sinusoidal metastasis (ratio in brackets) (MB16 cells [2]) | Percentage of focal points w/cavitation (% of total no. of metastatic focal points) (MB16 cells [2]) | No. portal metases (MB16 cells [2]) | No. sinusoidal metastasis (MB16 cells [2]) | Volume of hepatic metastasis (mm^3) (MB16 cells [2]) | Hepatic focal point density (No. focal points/100 mm^3) (MB16 cells [2]) | Metastatic cell proliferation index (% cells positive to Ki67 antigen) (MB16 cells [2]) | Length of angiogenic vessels (μm) (MB16 cells [2])
1 | Oc1ccc(/N=C/c2cc(O)cc(O)c2)cc1 [azaresveratrol, 5-((E)-(4-Hydroxyphenylimino)methyl)benzene-1,3-diol] | prevented | 16750 ± 135 No. cells per well | 46% | 4.09 | 40.0 ± 10% | 22.5 | 5.5 | 24.0 ± 9.0 mm^3 | 28.0 ± 10 No. focal points/100 mm^3 | 35.0 ± 10% | 88.0 ± 21 μm
2 | Oc1ccc(C=Cc2cc(O)cc(O)c2)cc1 [resveratrol, reference compound] | prevented | 16800 ± 250 No. cells per well | 50% | 3 | 41.5 ± 11% | 22.5 | 7.5 | 18.7 ± 7.5 mm^3 | 30.0 ± 11 No. focal points/100 mm^3 | 40.0 ± 5.0% | 88.0 ± 23 μm
